# Laboratory results reported in patent US20160115540A1, “PRODRUGS AND DRUGS” (Biogen MA Inc., priority 2013, published 2016).
# Where a name gives a salt, the structure may show the parent alone.
# Tested on: whole blood
# Assay: Transcriptional profiling on Affymetrix GeneChips, single dose, naïve mice: whole blood
# Type: in vivo, C57BL/6 mice
# Conditions: for Number of differentially expressed genes identified: Whole blood: Naïve, Single Dose
# Method: Treated mice were sacrificed at 2, 7, or 12 hours. Tissues (liver, spleen, kidney, jejunum, cortex, hippocampus, striatum and whole blood) were collected and analyzed by transcriptional profiling on mouse Affymetrix GeneChips. […] While the experiments were performed in mice, the human homolog of the identified murine gene transcript is included in the tables. Additional genes that were identified in the study are provided in APPENDIX A, filed herewith on even date, the contents of which are herein incorporated by reference in their entirety. Additional studies are described in the Examples, and genes identified in the studies are provided in […], and APPENDIX E filed herewith on even date, the contents of each of which are herein incorporated by reference in their entirety. […] Tissues (liver, spleen, kidney, jejunum, cortex, hippocampus, striatum and whole blood) were collected and analyzed by transcriptional profiling on mouse Affymetrix GeneChips. […] Animals were exposed to CO2 and whole blood collected via cardiac puncture. Two 100 μl aliquots of whole blood were collected in 1.5 mL microcentrifuge tubes and snap frozen in liquid nitrogen. Peripheral (liver, spleen, kidney and jejunum) and CNS brain (cerebellum, hippocampus, striatum and cortex) tissues were harvested and snap frozen in liquid nitrogen, with special care taken to collect tissues of similar size and from the same location. All samples were stored at -80° C. until RNA extraction was conducted. 50 ul of snap frozen mouse blood was re-suspended in lysis buffer with proteinase K and arrayed into deep-well plates for automated RNA extraction. RNA extractions were completed on […] (Beckman Coulter, Indianapolis, Ind.) using Agencourt RNAdvance Blood kit (Part number A35604) according to the manufacturer's specifications. RNA integrity was assessed using the HT RNA reagent kit (Part number 760410, Caliper Life Sciences, Hopkinton, Mass.) using a LabChip GX (PerkinElmer, Waltham, Mass.). RNA samples with a RQS score of >8.0 were considered high quality for downstream microarray processing. […] Two micrograms of biotin labeled […] probe were hybridized to Affymetrix GeneChip Affymetrix HT_MG-430_PM plate arrays with modified conditions as described in […] et al. Washing and staining of the hybridized arrays were completed as described in the GeneChip Expression analysis technical manual for HT plate arrays using the Genechip® Array Station (Affymetrix, Santa Clara, Calif.) with modifications as described in […] et al. The processed GeneChip® plate arrays were scanned using GeneTitan scanner (Affymetrix, Santa Clara, Calif.). Affymetrix scans were subject to quality control (QC) measures. These tests included a visual inspection of the distribution of raw signal intensities and an assessment of RNA degradation, relative log expression (RLE), and normalized unsealed standard error (NUSE). All sample scans that passed these QC metrics were included in the analysis. All CEL files were subjected to GC-content-based Robust Multi-array Average (GCRMA) normalization (version 2.20.0) (Irizarry R A, et al. Nucleic Acids Res 2003; 31:e15; Li C, et al. Genome Biol 2001; 2:[…]0032). […] Stat Appl Genet Mol Biol 2004; 3:Article3). […] Springer Science+Business Media 2005).
# [1] = 100 mpk, vs Vehicle, 2 h after last dosing
# [2] = 100 mpk, vs Vehicle, 7 h after last dosing
# [3] = 100 mpk, vs Vehicle, 12 h after last dosing
# [4] = whole blood, 100DMF-vs-Veh, 2 h
# [5] = whole blood, 100DMF-vs-Veh, 12 h
# [6] = whole blood, 100MMF-vs-Veh, 12 h
smiles,measurement,setting,value
"COC(=O)/C=C/C(=O)OC [DMF, dimethyl fumarate]","Number of genes, DMF Only / MMF Only",Blood,6
same,Cpsf2 (1420937_PM_at) differential expression,"Blood, 2 hr",−1.65
same,Gzma (1417898_PM_a_at) differential expression,"Blood, 12 hr",1.92
same,Klrb1b (1445399_PM_at) differential expression,"Blood, 12 hr",1.65
same,Klrc1 (1425005_PM_at) differential expression,"Blood, 12 hr",1.85
same,Klre1 (1458642_PM_at) differential expression,"Blood, 12 hr",1.85
same,Ncr1 (1422089_PM_at) differential expression,"Blood, 12 hr",1.86
same,Number of differentially expressed genes identified: Whole blood,"100 mpk DMF-vs-100 mpk MMF, 2 h after last dosing",0
same,Number of differentially expressed genes identified: Whole blood,"100 mpk DMF-vs-100 mpk MMF, 7 h after last dosing",1
same,Number of differentially expressed genes identified: Whole blood,"100 mpk DMF-vs-100 mpk MMF, 12 h after last dosing",0
same,Number of differentially expressed genes identified: Whole blood,[1],2
same,Number of differentially expressed genes identified: Whole blood,[2],0
same,Number of differentially expressed genes identified: Whole blood,[3],5
same,differentially expressed genes,"whole blood, 100DMF-vs-100MMF, 2 h",None
same,FC Lman1 (1444037_PM_at),"whole blood, 100DMF-vs-100MMF, 7 h",1.63
same,differentially expressed genes,"whole blood, 100DMF-vs-100MMF, 12 h",None
same,FC Cpsf2 (1420937_PM_at),[4],−1.65
same,FC probe 1441373_PM_at,[4],−1.70
same,FC Gzma (1417898_PM_a_at),[5],1.92
same,FC Klrb1b (1445399_PM_at),[5],1.65
same,FC Klrc1 (1425005_PM_at),[5],1.85
same,FC Klre1 (1458642_PM_at),[5],1.85
same,FC Ncr1 (1422089_PM_at),[5],1.86
same,differentially expressed genes,"whole blood, 100DMF-vs-Veh, 7 h",None
"COC(=O)/C=C/C(=O)O [MMF, monomethyl fumarate]","Number of genes, DMF Only / MMF Only",Blood,2
same,Bcl3 (1418133_PM_at) differential expression,"Blood, 2 hr",−1.23
same,Sdc1 (1415943_PM_at) differential expression,"Blood, 12 hr",−1.96
same,Number of differentially expressed genes identified: Whole blood,[1],1
same,Number of differentially expressed genes identified: Whole blood,[2],0
same,Number of differentially expressed genes identified: Whole blood,[3],2
same,FC Bcl3 (1418133_PM_at),"whole blood, 100MMF-vs-Veh, 2 h",−1.67
same,FC 0710007G10Rik /// Tmem175 (1435109_PM_at),[6],−1.52
same,FC Sdc1 (1415943_PM_at),[6],−1.96
same,Bcl3 mRNA fold change vs vehicle,"whole blood, 2 hr after single 100 mg/kg oral dose",−1.23
same,Sdc1 mRNA fold change vs vehicle,"whole blood, 12 hr after single 100 mg/kg oral dose",−1.96
